Source: patent US9914750B2, “Synthetic peptides and peptide mimetics” (University of Louisville Research Foundation, priority 2007, dated 2018)
Entries after “also recorded” stand apart in the source; their conditions may differ. Like-named read-outs stand apart in the source and are kept apart here. No end group written: not given here.

Tests used:
P. aeruginosa = assay: Antibacterial activity in vivo, Romaine lettuce infection model; parameters: species or system Pseudomonas aeruginosa; conditions: 200 μg/ml peptide injected with bacteria, scored after 2-3 days
Experimental: FIG. 4: Antibacterial activity in vivo. Romaine lettuce leaves were injected with P. aeruginosa (10^8 cells/nil) in the presence or absence of 200 μg/ml of antibacterial peptides. After 2-3 days incubation the injection sites were scored for infection on a scale of 0-100% relative to the no-bacteria (0% infection) and bacteria-only controls (PAO1) (100%). Data are from six independent experiments and are shown as mean±SEM, N=4−12. *) P<0.04, **) P<0.003.
Romaine lettuce heads were purchased from local grocery stores. Outer leaves were removed and undamaged leaves were selected. The leaves were rinsed in 0.1% bleach and incubated in plastic containers on filter paper moistened with 10 mM MgSO4. Overnight cultures of P. aeruginosa were diluted to 10^8 CFU/ml in 10 mM MgSO4 and supplemented with 200 μg/ml of each peptide. Ten μl (10^6 CFU, 2 μg peptide) were injected into the midrib of each leaf using a micro pipetter. Blank controls were incubated with buffer only, and bacterial controls were incubated without peptide. The plastic trays were covered and incubated at 35° C. Leaves were inspected daily for browning around the injection site or along the midrib. Generally rotting or moldy leaves were discarded. Infection was scored on a scale from 0% to 100% relative to blank controls and bacterial controls, respectively.

sheep red blood cells = assay: Hemagglutination assay; type: cell-based; conditions: PBS, absence of serum, 2 h
Experimental: FIG. 22: Hemagglutination of sheep red blood cells. RBCs were washed in PBS and incubated for 2 h in microtiter plates in PBS±5% fetal calf serum. Peptide concentrations were 83 μg/ml. The microtiter plate was imaged. Agglutinated red blood cells form a wide mat of cells, while non-agglutinated cells form a button shaped pellet.
Briefly, unmodified sheep erythrocytes (Cappel, M P Biomedicals, Irvine, Calif.) were washed in PBS and suspended at 1% in PBS. Diluted erythrocytes and 20 μg/ml of each peptide in PBS were mixed in polypropylene microtiter plates (120 μl per well) and incubated for 2 h at 35° C. The plates were imaged on a Kodak Image station.

[1] = system: P. aeruginosa with RAW 264.7 macrophage cells; assay: Gentamicin protection assay (phagocytosis / clearance by macrophages); type: cell-based, mouse; conditions: 100 μg/ml peptide
Experimental: FIG. 13. Phagocytosis of P. aeruginosa: Bacteria (5×10^8 CFU/ml) were incubated with buffer (Blk), GK-7 or GL-13 (100 μg/ml) for 1 h and added to RAW cells for 2 h. The RAW cells were washed and incubated with […] for 90 min. The cells were lysed in 1% Tween-20 and the diluted contents plated on agar. CFU were enumerated and expressed relative to the mean of the blank in each of three experiments (N=9) *) P=0.025.
Overnight cultures of P. aeruginosa were diluted 1:5 in PBS and incubated for 1 h at room temperature with PSP peptides (100 μg/ml) or with an equivalent amount of 0.01% acetic acid. Aliquots (500 μl) of these samples were added to RAW 264.7 macrophage cells cultured in 24-well plates and incubated for 2 h at 37° C., 5% CO2. The cells were washed in DMEM and then incubated with DMEM containing 200 μg/ml Gentamicin for 90 min at 37° C., 5% CO2. The cells were again washed with DMEM and the incubated with 200 μl/well of PBS containing 1% Tween 20 for 5 min at room temperature. The cell extracts were diluted in LB and plated on LB agar plates. CFU were enumerated after overnight incubation at 37° C.

P. aeruginosa PAO1 = assay: Biofilm formation / bacterial adhesion assay, PVC microtiter plates, crystal violet; type: cell-based, Pseudomonas aeruginosa; conditions: 50 μg/ml, 6 h
Experimental: FIGS. 7A and 7B: PSP-peptides inhibit biofilm formation. P. aeruginosa PAO1 (overnight cultures, diluted 1:100 were incubated with 50 μg/ml of each peptide (LL37, GK7, GL13, KL11) or lysozyme for 6 h under aerobic (FIG. 7A) or reduced oxygen (anaerobic) (FIG. 7B) conditions. The OD 570 (growth) was determined and the attached cells were then quantitated by staining with crystal violet (biofilm). Growth and biofilm values were normalized against the mean of samples without peptides (HOAc) and expressed as mean±SEM. The data in panel A are from three independent experiments, N=22−24. The data in panel B are from two independent experiments, N=16. Lysozyme (Lyz) data are from a single experiment, N=8. *) different from Growth, P<0.002
(§1) Overnight cultures of P. aeruginosa PAO1 were diluted 1:100 in MHB and 100 μl/well were incubated with 5 μl of LL-37, GK-7, GL-13, KL-11 or lysozyme (1 mg/ml) in PVC microtiter plates. The plates were incubated for 6 h at 32° C. under aerobic or reduced oxygen conditions. Bacterial growth was quantitated spectrophotometrically at 570 nm. Twenty-five μl of 1% crystal violet in dH2O was added to each well and incubated 20 min at room temperature. The wells were emptied and washed three times in dH2O and then incubated for 30 min with 200 μl of 95% ethanol. The OD at 570 nm was determined as a measure of biofilm formation. Growth and biofilm values were normalized against the mean of samples incubated with 0.01% acetic acid without peptides.
as §1, with “μl of the bacterial suspension was mixed” for “μl/well were incubated”, “50 μg/ml” for “5 μl”, “lysozyme” for “lysozyme (1 mg/ml)”

RAW 264.7 cells = assay: Assay for inflammation: TNFα secretion with peptides alone (ELISA); type: cell-based, mouse
Experimental: (§2) FIGS. 15A and 15B. FIG. 15A. Inhibition of endotoxin-stimulated TNFα secretion. RAW 264.7 macrophage cells were stimulated with 100 ng/ml LPS in the presence or absence of the PSP-derived peptides GK7, KL11 or GL13 (200 μg/ml). Polymyxin B (PMX) was used as a positive control. Further controls consisted of peptides alone without LPS stimulation. TNFα secretion was analyzed by ELISA of the RAW culture medium. The data are from triplicate RAW culture dishes for each condition. *) different from LPS alone P<0.03, **) P<0.0002. FIG. 15B. Dose response curve for the inhibition of LPS-induced TNFα secretion by GL-13.
To determine if the PSP peptides cause an inflammatory response in RAW 264.7 cells, the cells were incubated with each peptide for 24 h and TNFα secretion was quantitated by ELISA.
The vaccine adjuvant monophosphoryl lipid A (MPLA) a low-toxicity derivative of LPS was used to stimulate RAW cells in the presence or absence of PSP peptides (200 μg/ml) or the anti-inflammatory peptide polymyxin B (PMX). Control samples were incubated with the peptides alone.

[2] = system: Aggregatibacter (Actinobacillus) actinomycetemcomitans JP2; type: cell-based; conditions: 4 h, reduced oxygen
Experimental: The PSP peptides GL13, GK7 and KL11, lysozyme, LL37 or no peptide (BLK) were incubated with P. aeruginosa (FIG. 3A) or A. actinomycetemcomitans (FIG. 3B). P. aeruginosa PAO1 (10^5 cells/ml) were incubated for 2 h at 35° C. with 10 μg/ml (open bars) or 100 μg/ml (shaded bars) of each peptide. A. actinomycetemcomitans JP2 (10^5 cells/nil) were incubated for 4 h at 37° C. under reduced oxygen conditions. Bacterial cultures were diluted and plated on LB agar (Pseudomonas) or BHI agar plates (A.a., low oxygen incubation) and surviving CFUs enumerated. The data are shown as mean±SEM, P. aeruginosa: N=8−22 at 100 μg/ml, N=2−10 at 10 μg/ml. A. actinomycetemcomitans: N=3. *) P<0.0001, **) P<0.004, ***) P<0.02
Overnight cultures of bacteria were pelleted and resuspended in 10 mM sodium phosphate, pH 7.4 (10^5 CFU/ml). Diluted bacteria (100 μl) were incubated with 10 or 100 μg/ml of each peptide in 10 mM sodium phosphate, pH 7.4. P aeruginosa PAO1 were incubated for 2 h at 35° C. while A. actinomycetemcomitans JP2 were incubated for 4 h at 37° C. under reduced oxygen conditions. […]
As a second antibacterial assay, bactericidal activity was determined by incubating the peptides (10 or 100 μg/ml) with P. aeruginosa, A. actinomycetemcomitans or S. gordonii in 10 mM phosphate buffer. […]

[3] = system: P. aeruginosa PAO1 on MDCK cell monolayers; assay: Epithelial invasion assay, MDCK monolayer penetration; type: cell-based, Pseudomonas aeruginosa; conditions: 24 h
Experimental: FIG. 10. MDCK monolayer penetration: MDCK cells were cultured on filter supports and infected on the apical side with 10^6 CFU/ml of P. aeruginosa PAO1 (PAO1) or bacteria mixed with PSP peptides, as indicated. Control MDCK cells were incubated with buffer alone (HOAc). After 24 h incubation at 37° C., the OD 600 nm was determined for the media in the basolateral compartment to detect bacterial penetration of the MDCK cell monolayer.
To determine if PSP peptides prevent the penetration of epithelial cell monolayers, the epithelial cell line MDCK was cultured on permeable membrane filters. P. aeruginosa were added to the apical medium of confluent MDCK cell monolayers and bacterial penetration was determined as the number of bacteria recovered from the basolateral medium after a 24 h incubation.

[4] = system: LPS-binding protein (LBP); assay: Inhibition of LPS binding to LPS-binding protein (ELISA)
Experimental: Analysis of the PSP sequence indicated three possible regions of biological activity. Initially, three peptides corresponding to the PSP sequence in these regions were designed and used in these studies. The initial step in the inflammatory cascade is the binding of LPS to LPS-binding protein. This binding was inhibited by preincubation of LPS with each of the three peptides. […] The binding of LPS to LPB was analyzed to ELISA. 0% inhibition (100% binding) was determined in the absence of inhibitors while 100% inhibition was determined in the presence of the inhibitor polymyxin B. The inhibition of each peptide is determined relative to the effect of polymyxin B.

[5] = system: RAW 264.7 macrophage cells; assay: LPS-induced TNFα secretion (ELISA); type: cell-based, mouse; conditions: P. aeruginosa LPS
Experimental: as §2
In the present experiments, the redesigned PSP peptides (GL13, KL11) were tested for their effect on TNFα secretion and compared to GK7.

Substance | infection of lettuce leaves (P. aeruginosa) | hemagglutination (words) (sheep red blood cells) | bacterial clearance / phagocytosis [1] | bacterial growth in biofilm/adhesion assay (P. aeruginosa PAO1; aerobic) | biofilm formation / adhesion (P. aeruginosa PAO1; aerobic) | TNFα secretion with peptide alone (RAW 264.7 cells) | survival of A. actinomycetemcomitans [2] [%] | inhibition of biofilm formation (adhesion) (P. aeruginosa PAO1; aerobic) [%] | biofilm formation (P. aeruginosa PAO1; reduced oxygen conditions) | penetration / invasion of MDCK cell monolayers by P. aeruginosa [3] | effect on LPS binding to LBP [4] | inhibition of LPS-induced TNFα secretion [5] | TNFα secretion with peptide alone (RAW 264.7 cells; no LPS stimulation)
GQIINLK [GK7, GQIINLK] | neither GK-7 nor LL37 showed a significant effect on infection | did not cause hemagglutination | had no effect on clearance | affected neither growth nor adhesion | affected neither growth nor adhesion | small increase in TNFα secretion | – | – | – | – | – | – | –
KLLNNVISKLL [KL11, KLLNNVISKLL] | significantly reduced the infection; also recorded: significantly inhibit P. aeruginosa infection | did not cause hemagglutination | – | only a small (non-significant) reduction of bacterial growth | – | – | 40 | 40 | reduced biofilm formation under low oxygen conditions | could inhibit the penetration | – | – | –
polymyxin B [reference compound] | – | did not cause hemagglutination | – | – | – | – | – | – | – | – | Strong inhibition | about 50% | exhibited toxicity to RAW cells, as evidenced by increased TNFα release
